# Laboratory results published in article PMC5218480 (PLoS ONE, 2017).
# Tested on: MV-4-11 cells
# Assay: Gene expression microarray analysis (Affymetrix PrimeView) and GSEA
# Format: cell-based, human
# Parameters: RFU PODN (11730768_x_at) / Fold change /veh PODN (11730768_x_at) / RFU LINC00158 (11744669_a_at) / Fold change /veh LINC00158 (11744669_a_at) / RFU DUSP10 (11751237_a_at) / Fold change /veh DUSP10 (11751237_a_at) / RFU ID3 (11757404_x_at) / Fold change /veh ID3 (11757404_x_at) / RFU PLEKHG5 (11737974_s_at) / Fold change /veh PLEKHG5 (11737974_s_at) / RFU LRRC4B (11730491_at) / Fold change /veh LRRC4B (11730491_at) / RFU GIMAP4 (11747438_a_at) / Fold change /veh GIMAP4 (11747438_a_at) / RFU KRT8 (11758183_x_at) / Fold change /veh KRT8 (11758183_x_at) / RFU CNN1 (11734310_a_at) / Fold change /veh CNN1 (11734310_a_at) / RFU VPS37D (11726825_at) / Fold change /veh VPS37D (11726825_at) / RFU C10orf10 (11716522_x_at) / Fold change /veh C10orf10 (11716522_x_at) / RFU KIR2DL2 /// KIR2DL4 /// KIR2DL5A /// KIR2DL5B /// KIR2DS1 /// KIR2DS2 /// KIR2DS3 /// KIR2DS4 /// KIR3DL3 /// KIR3DL3 /// KIR3DS1 (11738374_at) / Fold change /veh KIR2DL2 /// KIR2DL4 /// KIR2DL5A /// KIR2DL5B /// KIR2DS1 /// KIR2DS2 /// KIR2DS3 /// KIR2DS4 /// KIR3DL3 /// KIR3DL3 /// KIR3DS1 (11738374_at) / RFU C1QL1 (11718748_at) / Fold change /veh C1QL1 (11718748_at) / RFU TMPRSS4 (11747572_a_at) / Fold change /veh TMPRSS4 (11747572_a_at) / RFU HAMP (11756126_x_at) / Fold change /veh HAMP (11756126_x_at) / RFU RNFT2 (11725882_a_at) / Fold change /veh RNFT2 (11725882_a_at) / RFU NR4A2 (11747474_a_at) / Fold change /veh NR4A2 (11747474_a_at) / RFU ABCC12 (11746883_a_at) / Fold change /veh ABCC12 (11746883_a_at) / RFU TMEM136 (11760407_x_at) / Fold change /veh TMEM136 (11760407_x_at) / RFU CLDN22 /// WWC2 (11732394_at) / Fold change /veh CLDN22 /// WWC2 (11732394_at) / RFU HLA-DPB1 (11760878_x_at) / Fold change /veh HLA-DPB1 (11760878_x_at) / RFU SPINT1 (11716480_a_at) / Fold change /veh SPINT1 (11716480_a_at) / RFU GAP43 (11754022_s_at) / Fold change /veh GAP43 (11754022_s_at) / RFU A4GNT (11735810_at) / Fold change /veh A4GNT (11735810_at) / RFU PRB3 (11715151_x_at) / Fold change /veh PRB3 (11715151_x_at) / RFU TUBB4B (11761932_at) / Fold change /veh TUBB4B (11761932_at) / RFU CAPN14 (11732068_a_at) / Fold change /veh CAPN14 (11732068_a_at) / RFU TMCC2 (11721928_a_at) / Fold change /veh TMCC2 (11721928_a_at) / RFU IRGQ (11745062_a_at) / Fold change /veh IRGQ (11745062_a_at) / RFU FAM174B (11720279_a_at) / Fold change /veh FAM174B (11720279_a_at) / RFU TMPRSS4 (11748680_a_at) / Fold change /veh TMPRSS4 (11748680_a_at) / RFU FAM212B (11763350_a_at) / Fold change /veh FAM212B (11763350_a_at) / RFU PLEKHG5 (11743358_a_at) / Fold change /veh PLEKHG5 (11743358_a_at) / RFU ZSCAN30 (11745921_a_at) / Fold change /veh ZSCAN30 (11745921_a_at) / RFU CMKLR1 (11741424_a_at) / Fold change /veh CMKLR1 (11741424_a_at) / RFU LOC101060620 /// MAPK8IP1 (11723275_at) / Fold change /veh LOC101060620 /// MAPK8IP1 (11723275_at) / RFU SPTSSB (11747773_x_at) / Fold change /veh SPTSSB (11747773_x_at) / RFU PRSS12 (11739890_at) / Fold change /veh PRSS12 (11739890_at) / RFU BIN1 (11741810_x_at) / Fold change /veh BIN1 (11741810_x_at) / RFU WNT11 (11732464_a_at) / Fold change /veh WNT11 (11732464_a_at) / RFU C10orf10 (11716521_a_at) / Fold change /veh C10orf10 (11716521_a_at) / RFU C5orf56 (11738089_at) / Fold change /veh C5orf56 (11738089_at) / RFU CYB561 (11721691_x_at) / Fold change /veh CYB561 (11721691_x_at) / RFU ANKRD19P (11752326_a_at) / Fold change /veh ANKRD19P (11752326_a_at) / RFU OR2T12 /// OR2T33 /// OR2T8 (11738714_s_at) / Fold change /veh OR2T12 /// OR2T33 /// OR2T8 (11738714_s_at) / RFU VCAN (11748164_a_at) / Fold change /veh VCAN (11748164_a_at) / RFU JSRP1 (11732532_at) / Fold change /veh JSRP1 (11732532_at) / RFU KRTAP10-11 (11738290_x_at) / Fold change /veh KRTAP10-11 (11738290_x_at) / RFU MYO3A (11730013_a_at) / Fold change /veh MYO3A (11730013_a_at) / RFU EBF3 (11725865_a_at) / Fold change /veh EBF3 (11725865_a_at) / RFU CAMK2N1 (11719241_x_at) / Fold change /veh CAMK2N1 (11719241_x_at) / RFU C5orf56 (11738088_a_at) / Fold change /veh C5orf56 (11738088_a_at) / RFU OLFML3 (11715873_a_at) / Fold change /veh OLFML3 (11715873_a_at) / RFU LOC100653217 /// NTM (11731650_a_at) / Fold change /veh LOC100653217 /// NTM (11731650_a_at) / RFU MAPK11 (11762145_a_at) / Fold change /veh MAPK11 (11762145_a_at) / RFU FIZ1 (11724087_x_at) / Fold change /veh FIZ1 (11724087_x_at) / RFU OASL (11726364_x_at) / Fold change /veh OASL (11726364_x_at) / RFU SOX15 (11748057_x_at) / Fold change /veh SOX15 (11748057_x_at) / RFU CD79A (11719716_a_at) / Fold change /veh CD79A (11719716_a_at) / RFU HIST1H1D (11736915_at) / Fold change /veh HIST1H1D (11736915_at) / RFU CASKIN2 (11723855_a_at) / Fold change /veh CASKIN2 (11723855_a_at) / RFU LOC730098 (11760151_x_at) / Fold change /veh LOC730098 (11760151_x_at) / RFU OR4N2 (11742367_at) / Fold change /veh OR4N2 (11742367_at) / RFU PRRT2 (11749266_a_at) / Fold change /veh PRRT2 (11749266_a_at) / RFU SNX32 (11753110_a_at) / Fold change /veh SNX32 (11753110_a_at) / RFU CDHR5 (11726645_a_at) / Fold change /veh CDHR5 (11726645_a_at) / RFU RCAN1 (11760418_a_at) / Fold change /veh RCAN1 (11760418_a_at) / RFU FAM167A (11723789_a_at) / Fold change /veh FAM167A (11723789_a_at) / RFU FAM26E (11764081_at) / Fold change /veh FAM26E (11764081_at) / RFU ISYNA1 (11749810_s_at) / Fold change /veh ISYNA1 (11749810_s_at) / RFU ACY1 (11761880_at) / Fold change /veh ACY1 (11761880_at) / RFU 11764098_at / Fold change /veh 11764098_at / RFU SAMD14 (11745864_x_at) / Fold change /veh SAMD14 (11745864_x_at) / RFU NPB (11741838_a_at) / Fold change /veh NPB (11741838_a_at) / RFU TMPRSS6 (11731388_a_at) / Fold change /veh TMPRSS6 (11731388_a_at) / RFU KRTAP10-2 (11738614_at) / Fold change /veh KRTAP10-2 (11738614_at) / RFU ARHGAP8 /// PRR5-ARHGAP8 (11727945_x_at) / Fold change /veh ARHGAP8 /// PRR5-ARHGAP8 (11727945_x_at) / RFU KRTAP5-7 /// NADSYN1 (11734609_at) / Fold change /veh KRTAP5-7 /// NADSYN1 (11734609_at) / RFU RASL12 (11751679_a_at) / Fold change /veh RASL12 (11751679_a_at) / RFU CDKN2B (11736163_a_at) / Fold change /veh CDKN2B (11736163_a_at) / RFU PRF1 (11729649_at) / Fold change /veh PRF1 (11729649_at) / RFU, ZNF638 /// ZNF638-IT1 / Fold change vs veh, ZNF638 /// ZNF638-IT1 / RFU, PANK3 / Fold change vs veh, PANK3 / RFU, SH3YL1 / Fold change vs veh, SH3YL1 / RFU, ZEB2 / Fold change vs veh, ZEB2 / RFU, NRIP1 / Fold change vs veh, NRIP1 / RFU, PTTG1IP / Fold change vs veh, PTTG1IP / RFU, CAPN2 / Fold change vs veh, CAPN2 / RFU, MED14 / Fold change vs veh, MED14 / RFU, SNORA58 / Fold change vs veh, SNORA58 / RFU, C1orf63 / Fold change vs veh, C1orf63 / RFU, LRRFIP1 / Fold change vs veh, LRRFIP1 / RFU, NDUFAF7 / Fold change vs veh, NDUFAF7 / RFU, SLC12A2 / Fold change vs veh, SLC12A2 / RFU, IBTK / Fold change vs veh, IBTK / RFU, ESF1 / Fold change vs veh, ESF1 / Fold change vs veh, TMEM50B / RFU, TAOK1 / Fold change vs veh, TAOK1 / RFU, ACBD3 / Fold change vs veh, ACBD3 / RFU, TMA16 / Fold change vs veh, TMA16 / RFU, RWDD3 / Fold change vs veh, RWDD3 / RFU, BCAT1 / Fold change vs veh, BCAT1 / RFU, EDEM3 / Fold change vs veh, EDEM3 / RFU, TMEM33 / Fold change vs veh, TMEM33 / RFU, WDR75 / Fold change vs veh, WDR75 / RFU, AHCTF1 / Fold change vs veh, AHCTF1 / RFU, TFRC / Fold change vs veh, TFRC / RFU, ZDHHC17 / Fold change vs veh, ZDHHC17 / RFU, NOM1 / Fold change vs veh, NOM1 / RFU, ARL8B / Fold change vs veh, ARL8B / RFU, ZBTB11 / Fold change vs veh, ZBTB11 / RFU, TAMM41 / Fold change vs veh, TAMM41 / RFU, KIAA1704 /// LOC100996395 / Fold change vs veh, KIAA1704 /// LOC100996395 / RFU, ING1 / Fold change vs veh, ING1 / RFU, TRMT61B / Fold change vs veh, TRMT61B / RFU, FUBP3 / Fold change vs veh, FUBP3 / RFU, TP53 / Fold change vs veh, TP53 / RFU, TNKS2 / Fold change vs veh, TNKS2 / RFU, ZFP14 / Fold change vs veh, ZFP14 / RFU, ACTR2 / Fold change vs veh, ACTR2 / RFU, PPP3R1 / Fold change vs veh, PPP3R1 / RFU, PIK3R1 / Fold change vs veh, PIK3R1 / RFU, HNRNPA1 / Fold change vs veh, HNRNPA1 / RFU, RNF170 / Fold change vs veh, RNF170 / RFU, ZNF28 / Fold change vs veh, ZNF28 / RFU, RNGTT / Fold change vs veh, RNGTT / RFU, OGT / Fold change vs veh, OGT / RFU, BRD1 / Fold change vs veh, BRD1 / RFU, MARS / Fold change vs veh, MARS / RFU, ZNF655 / Fold change vs veh, ZNF655 / RFU, FAHD1 / Fold change vs veh, FAHD1 / RFU, BDP1 / Fold change vs veh, BDP1 / RFU, LRRCC1 / Fold change vs veh, LRRCC1 / RFU, ARID1A / Fold change vs veh, ARID1A / RFU, ZNF146 / Fold change vs veh, ZNF146 / RFU, ZNF330 / Fold change vs veh, ZNF330 / RFU, GPN3 / Fold change vs veh, GPN3 / RFU, C9orf123 / Fold change vs veh, C9orf123 / RFU, N4BP2L2 / Fold change vs veh, N4BP2L2 / RFU, ARFIP1 / Fold change vs veh, ARFIP1 / RFU, FAM179B / Fold change vs veh, FAM179B / RFU, BCL10 / Fold change vs veh, BCL10 / RFU, UHRF1BP1L / Fold change vs veh, UHRF1BP1L / RFU, BET1 / Fold change vs veh, BET1 / RFU, CNOT2 / Fold change vs veh, CNOT2 / RFU, ZNF268 / Fold change vs veh, ZNF268 / Fold change vs veh, ZNF507 / RFU, DGCR2 / Fold change vs veh, DGCR2 / RFU, WDSUB1 / Fold change vs veh, WDSUB1 / Fold change vs veh, HSP90B1 /// MIR3652 / RFU, ADSS / Fold change vs veh, ADSS / RFU, GK / Fold change vs veh, GK / RFU, ZNF148 / Fold change vs veh, ZNF148 / RFU, TAF9 / Fold change vs veh, TAF9 / RFU, SLC1A5 / Fold change vs veh, SLC1A5 / RFU, SLMO2 / Fold change vs veh, SLMO2 / RFU, ABCC4 / Fold change vs veh, ABCC4 / RFU, LOC101060439 /// RAP1B / Fold change vs veh, LOC101060439 /// RAP1B / RFU, RFX7 / Fold change vs veh, RFX7 / RFU, GTPBP10 / Fold change vs veh, GTPBP10 / RFU, CNEP1R1 / Fold change vs veh, CNEP1R1 / RFU, BIVM-ERCC5 /// ERCC5 / Fold change vs veh, BIVM-ERCC5 /// ERCC5 / RFU, ILF3 / Fold change vs veh, ILF3 / RFU 11762660_at / Fold change /veh 11762660_at / RFU VCAN (11757783_s_at) / Fold change /veh VCAN (11757783_s_at) / RFU DDX43 (11728927_at) / Fold change /veh DDX43 (11728927_at) / RFU KRT8 (11758188_x_at) / Fold change /veh KRT8 (11758188_x_at) / RFU NKD1 (11759106_at) / Fold change /veh NKD1 (11759106_at) / RFU SRD5A1 (11742802_a_at) / Fold change /veh SRD5A1 (11742802_a_at) / RFU TPSAB1 /// TPSB2 (11721975_s_at) / Fold change /veh TPSAB1 /// TPSB2 (11721975_s_at) / RFU GSTM3 (11746129_a_at) / Fold change /veh GSTM3 (11746129_a_at) / RFU IL23R (11737362_x_at) / Fold change /veh IL23R (11737362_x_at) / RFU TMEM51 (11727254_a_at) / Fold change /veh TMEM51 (11727254_a_at) / RFU PIWIL2 (11732686_x_at) / Fold change /veh PIWIL2 (11732686_x_at) / RFU ORM1 (11744905_x_at) / Fold change /veh ORM1 (11744905_x_at) / RFU CCDC152 (11743942_at) / Fold change /veh CCDC152 (11743942_at) / RFU ECM1 (11717891_a_at) / Fold change /veh ECM1 (11717891_a_at) / RFU IL23R (11748794_a_at) / Fold change /veh IL23R (11748794_a_at) / RFU TNFAIP8L3 (11732012_x_at) / Fold change /veh TNFAIP8L3 (11732012_x_at) / RFU MBOAT4 (11741988_at) / Fold change /veh MBOAT4 (11741988_at) / RFU 11764193_at / Fold change /veh 11764193_at / RFU TMEM53 (11763286_at) / Fold change /veh TMEM53 (11763286_at) / RFU MAGEB2 (11727129_at) / Fold change /veh MAGEB2 (11727129_at) / RFU TMEM200A (11744735_a_at) / Fold change /veh TMEM200A (11744735_a_at) / RFU CCDC152 (11751479_a_at) / Fold change /veh CCDC152 (11751479_a_at) / RFU FAM211A (11726209_a_at) / Fold change /veh FAM211A (11726209_a_at) / RFU RGS16 (11746705_a_at) / Fold change /veh RGS16 (11746705_a_at) / RFU VCAN (11755009_s_at) / Fold change /veh VCAN (11755009_s_at) / RFU RHOB (11743442_s_at) / Fold change /veh RHOB (11743442_s_at) / RFU RGS16 (11720943_a_at) / Fold change /veh RGS16 (11720943_a_at) / RFU RGS16 (11720944_at) / Fold change /veh RGS16 (11720944_at) / RFU, VPS4B / Fold change vs veh, VPS4B / RFU, CREB1 / Fold change vs veh, CREB1 / RFU, DNAJC13 / Fold change vs veh, DNAJC13 / RFU, GNAQ / Fold change vs veh, GNAQ / RFU, CDK5R1 / Fold change vs veh, CDK5R1 / RFU, ZRANB3 / Fold change vs veh, ZRANB3 / RFU, CUL4A / Fold change vs veh, CUL4A / RFU, CCNY / Fold change vs veh, CCNY / RFU, UFL1 / Fold change vs veh, UFL1 / RFU, COG3 / Fold change vs veh, COG3 / RFU, DIAPH2 / Fold change vs veh, DIAPH2 / RFU, SKA2 / Fold change vs veh, SKA2 / RFU, AFF3 / Fold change vs veh, AFF3 / RFU, LMF1 / Fold change vs veh, LMF1 / RFU, IPO11 / Fold change vs veh, IPO11 / RFU, DFFB / Fold change vs veh, DFFB / RFU, FOXP1 / Fold change vs veh, FOXP1 / RFU, CARD8 / Fold change vs veh, CARD8 / RFU, STRN3 / Fold change vs veh, STRN3 / RFU, ADK / Fold change vs veh, ADK / RFU, RASSF2 / Fold change vs veh, RASSF2 / RFU, WIPF1 / Fold change vs veh, WIPF1 / RFU, LARP1B / Fold change vs veh, LARP1B / RFU, RASA1 / Fold change vs veh, RASA1 / RFU, RB1 / Fold change vs veh, RB1 / RFU, PPFIA1 / Fold change vs veh, PPFIA1 / RFU, MAT2A / Fold change vs veh, MAT2A / RFU, CCT5 / Fold change vs veh, CCT5 / RFU, WDR92 / Fold change vs veh, WDR92 / RFU, CUX1 / Fold change vs veh, CUX1 / RFU, TTC7A / Fold change vs veh, TTC7A / RFU, TMEM135 / Fold change vs veh, TMEM135 / RFU, DEPTOR / Fold change vs veh, DEPTOR / RFU, CPM / Fold change vs veh, CPM / RFU, DNAJB6 / Fold change vs veh, DNAJB6 / RFU, CACNA2D3 / Fold change vs veh, CACNA2D3 / RFU, DTX4 / Fold change vs veh, DTX4 / RFU, TFCP2 / Fold change vs veh, TFCP2 / RFU, GMCL1 /// GMCL1P1 / Fold change vs veh, GMCL1 /// GMCL1P1 / RFU, AEBP2 / Fold change vs veh, AEBP2 / RFU, SNHG1 /// SNORD22 /// SNORD25 /// SNORD26 /// SNORD27 /// SNORD28 /// SNORD29 /// SNORD31 / Fold change vs veh, SNHG1 /// SNORD22 /// SNORD25 /// SNORD26 /// SNORD27 /// SNORD28 /// SNORD29 /// SNORD31 / Fold change (Aza/veh), C12orf56 (ProbeSet 11735607_a_at) / Fold change (ACY-1035/veh), C12orf56 (ProbeSet 11735607_a_at) / Fold change (Aza/veh), FGFR1OP (ProbeSet 11751329_s_at) / Fold change (ACY-1035/veh), FGFR1OP (ProbeSet 11751329_s_at) / Fold change (Aza/veh), VPS36 (ProbeSet 11739960_a_at) / Fold change (ACY-1035/veh), VPS36 (ProbeSet 11739960_a_at) / RFU SYPL1 (11715823_x_at) / Fold change /veh SYPL1 (11715823_x_at) / RFU IGFBP7 (11715501_s_at) / Fold change /veh IGFBP7 (11715501_s_at) / RFU REEP3 (11722064_at) / Fold change /veh REEP3 (11722064_at) / RFU IGLL1 (11728026_x_at) / Fold change /veh IGLL1 (11728026_x_at): dose or concentration left out as unconfirmed
# Details: ProbeSet 11726661_s_at; LIST B
smiles,measurement,value
Nc1ncn([C@@H]2O[C@H](CO)[C@@H](O)[C@H]2O)c(=O)n1 [azacitidine],"RFU, GPN3",248.57 RFU
